Reference: article PMC12387182, “Polyphenolic Profiling and Evaluation of Antioxidant, Antidiabetic, Anti-Alzheimer, and Antiglaucoma Activities of Allium kharputense and Anchusa azurea var. azurea” (Life, 2025)

What was measured:
α-glycosidase = α-glycosidase (Saccharomyces cerevisiae, UniProt P53341); conditions: cited from earlier work
[1] = Cu^2+ reducing ability (CUPRAC); conditions: absorbance at 30 µg/mL
Method: Equal volumes of 1.0 mM CuCl2, 7.5 mM neocuprine solutions, and 1.0 M ammonium acetate buffer (pH 6.5) were prepared according to the technique of Apak et al.. The plants were mixed with three different concentrations of the samples (15–45 µg/mL in ethanol), and the total reaction volume was adjusted to 2 mL. After the tubes were kept at room temperature for 30 min, the absorbance values at 450 nm were read spectrophotometrically.

Fe^3+ reducing = conditions: absorbance at 30 µg/mL
[2] = Fe^3+-TPTZ reducing (FRAP); conditions: absorbance at 30 µg/mL
Method: The ferric reducing capacity (FRAP) of plasma is measured using the technique outlined. At low pH, a strong blue hue with a maximum absorption at 593 nm is produced when a ferric–tripyridyltriazine (Fe^3+-TPTZ) complex is reduced to the Fe^2+ form.

ABTS scavenging activity = assay: ABTS scavenging activity
Method: In addition, the ABTS^•^+ scavenging capacity of A. kharputense and A. azurea was determined. The mixture comprised 2 mM ABTS in water combined with 2.45 mM potassium persulfate (K2S2O8) to form ABTS^•+. This mixture was then kept for six hours at room temperature and in the dark. The study was performed by first diluting the solution in phosphate buffer (pH 7.4) to achieve an absorption of 0.800 ± 0.05 at 734 nm in a 1 mL cuvette. The solution was then equilibrated at 30 °C, the temperature at which all subsequent tests were conducted. Subsequently, 3 mL of each of A. kharputense and A. azurea in ethanol at various concentrations (10–30 µg/mL) were combined with 1 mL each of ABTS^•+ solution. Following a 30 min period of agitation, the absorbances were measured at 734 nm, and the radical scavenging activities were calculated for each concentration.

DPPH scavenging activity = assay: DPPH scavenging activity
Method: DPPH solution was prepared one day before the experimental measurement. The solution bottle was kept in the dark and stirred at 4 °C for 16 h. Aluminum foil was used to cover the bottle. Shortly after the preparation of 0.1 mM DPPH solution in ethanol, 0.5 mL of this solution was added to 2 mL A. kharputense and A. azurea extracts in ethanol at various concentrations (10–30 µg/mL). A. kharputense and A. azurea samples were vortexed and incubated at 30 °C for 30 min in the dark. The DPPH^• absorbances were measured and evaluated at 517 nm in comparison with the blank sample [40].

[3] = cited from earlier work

α-glycosidase, sequence (P53341 whole entry): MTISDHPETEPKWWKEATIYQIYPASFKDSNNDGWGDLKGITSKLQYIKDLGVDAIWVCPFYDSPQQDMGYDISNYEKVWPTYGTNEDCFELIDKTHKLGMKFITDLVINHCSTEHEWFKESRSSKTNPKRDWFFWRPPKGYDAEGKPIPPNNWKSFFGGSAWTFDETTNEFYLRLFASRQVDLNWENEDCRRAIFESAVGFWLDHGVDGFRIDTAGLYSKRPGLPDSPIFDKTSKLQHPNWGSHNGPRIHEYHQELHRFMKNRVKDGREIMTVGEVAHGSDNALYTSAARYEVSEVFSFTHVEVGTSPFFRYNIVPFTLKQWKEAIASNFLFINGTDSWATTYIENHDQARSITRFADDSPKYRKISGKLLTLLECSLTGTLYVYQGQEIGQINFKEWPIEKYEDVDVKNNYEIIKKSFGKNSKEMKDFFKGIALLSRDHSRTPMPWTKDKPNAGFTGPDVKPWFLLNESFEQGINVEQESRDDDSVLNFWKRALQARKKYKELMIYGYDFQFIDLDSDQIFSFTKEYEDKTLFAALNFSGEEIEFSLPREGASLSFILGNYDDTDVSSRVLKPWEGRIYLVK

For `O=c1c(O[C@@H]2O[C@H](CO)[C@@H](O)[C@H](O)[C@H]2O)c(-c2ccc(O)c(O)c2)oc2cc(O)cc(O)c12` [isoquercitrin], the “α-glycosidase inhibitory effect compared with Acarbose” value (α-glycosidase) is given as “stronger than that of Acarbose”.
In the case of `Cc1cc(C(C)(C)C)c(O)c(C(C)(C)C)c1` [BHT, butylated hydroxytoluene], the “Cu^2+ Reducing A (450 nm)” value [1] is reported as 2.15 ± 0.068, the “Fe^3+ Reducing A (700 nm)” value (Fe^3+ reducing) is reported as 2.08 ± 0.062 and the “Fe^3+-TPTZ Reducing A (593 nm)” value [2] is reported as 1.50 ± 0.080. The “ABTS^•+ Scavenging IC50” value (ABTS scavenging activity) was 32.00 ± 0.100 µg/mL and the “DPPH^• Scavenging IC50” value (DPPH scavenging activity) was 13.34 ± 0.011 µg/mL.
In the case of `Cc1c(C)c2c(c(C)c1O)CCC(C)(C(=O)O)O2` (centres unmarked) [Trolox], the “Cu^2+ Reducing A (450 nm)” value [1] is reported as 1.04 ± 0.102, the “Fe^3+ Reducing A (700 nm)” value (Fe^3+ reducing) is reported as 1.45 ± 0.005 and the “Fe^3+-TPTZ Reducing A (593 nm)” value [2] is reported as 0.84 ± 0.010. For the same compound, the “ABTS^•+ Scavenging IC50” value (ABTS scavenging activity) was 53.26 ± 0.070 µg/mL and the “DPPH^• Scavenging IC50” value (DPPH scavenging activity) was 20.98 ± 0.016 µg/mL.
With `Cc1c(C)c2c(c(C)c1O)CC[C@@](C)(CCC[C@H](C)CCC[C@H](C)CCCC(C)C)O2` [α-Tocopherol, α-tocopherol] the “Cu^2+ Reducing A (450 nm)” value [1] was 1.47 ± 0.044, the “Fe^3+ Reducing A (700 nm)” value (Fe^3+ reducing) was 0.94 ± 0.059 and the “ABTS^•+ Scavenging IC50” value (ABTS scavenging activity) was 25.12 ± 0.070 µg/mL. For the same compound, the “DPPH^• Scavenging IC50” value (DPPH scavenging activity) was 30.29 ± 0.056 µg/mL.
For `COc1ccc(O)c(C(C)(C)C)c1` [BHA, butylated hydroxyanisole], the “Cu^2+ Reducing A (450 nm)” value [1] was 1.58 ± 0.016, the “Fe^3+ Reducing A (700 nm)” value (Fe^3+ reducing) was 1.76 ± 0.026 and the “Fe^3+-TPTZ Reducing A (593 nm)” value [2] was 1.75 ± 0.040. For the same compound, the “ABTS^•+ Scavenging IC50” value (ABTS scavenging activity) was 38.59 ± 0.130 µg/mL and the “DPPH^• Scavenging IC50” value (DPPH scavenging activity) was 23.87 ± 0.097 µg/mL.
For `O=C1O[C@H]([C@@H](O)CO)C(O)=C1O` [Ascorbic acid], the “ABTS^•+ Scavenging IC50” value (ABTS scavenging activity) is listed as 28.79 ± 0.120 µg/mL, the “DPPH^• Scavenging IC50” value (DPPH scavenging activity) is listed as 18.61 ± 0.120 µg/mL and the “DPPH radical scavenging activity (IC50)” value [3] is listed as 3.6 µg/mL.
